Source: article PMC7156736, “Phase 1 study of the pan-HER inhibitor dacomitinib plus the MEK1/2 inhibitor PD-0325901 in patients with KRAS-mutation-positive colorectal, non-small-cell lung and pancreatic cancer” (British Journal of Cancer, 2020)
Like-named read-outs stand apart in the source and are kept apart here.

Legend:
[1] = system: patients with KRASm CRC, NSCLC or pancreatic cancer; type: in vivo; conditions: dacomitinib QD continuous, PD-0325901 BID 21 days on/7 days off
Description: . The starting doses were based on previous data from single-agent Phase 1 studies with both compounds, taking into account the potential for synergistic toxicity. […]. Dose-escalation decisions were based on safety evaluation of all evaluable patients, performed after completion of the first treatment cycle. Patients were considered evaluable for the dose-determining part of this study if at least one cycle of study treatment was completed, with the minimum safety evaluation conducted, and at least one administration of both drugs received, or if dose-limiting toxicity (DLT) had occurred during the first cycle. If one out of three patients experienced a DLT, the number of patients treated at that dose level was expanded to a maximum of six. […] Patients were continuing study treatment until disease progression, unacceptable toxicity or investigator/patient decision to discontinue.
Safety was monitored throughout the treatment by physical examination, laboratory assessments, electrocardiography, ophthalmic evaluation and collection of adverse events. Adverse events were recorded according to the Common Terminology Criteria for Adverse Events version 4.0. All adverse events that were possible, probable or definite related to study drug were considered as study/treatment related. […]

[2] = plasma pharmacokinetics in patients (HPLC–MS/MS, non-compartmental analysis); type: in vivo, human; conditions: for AUC(0-t): read-out: AUC0-12h PD-0325901, mean (CV%); for Cmax: read-out: Cmax PD-0325901, mean (CV%)
Procedure: For pharmacokinetic analyses, serial blood samples were obtained from all patients prior to treatment administration on day 1, and 1, 2, 3, 4, 6, 8, 12, 24, 72 and 144 h after the first dose. On day 1 of cycle 2, blood samples were drawn before and 1, 2, 3, 4, 6, 8, 12 and 24 h after administration. Plasma samples were assayed using a validated high-performance liquid chromatography– tandem mass spectrometry method (HPLC–MS/MS). Briefly, dacomitinib and PD-0325901 were extracted from plasma by protein precipitation with a mixture of acetonitrile/methanol (1:1 v/v). Compounds were chromatographically separated using a Waters Xbridge BEH Phenyl column (50 ×2.1-mm ID, 5-μm particle size), and detection was performed using an API4000 tandem mass spectrometer equipped with a turbo ion spray interface, operating in the positive ion mode. Transitions from m/z 480 to 329 and m/z 489 to 255 were monitored for the detection of dacomitinib and PD-0325901, respectively. Stable isotope-labelled internal standards were used for the quantification. The lower and upper limits of quantification were, respectively, 0.5 and 50 ng/ml for dacomitinib, and 5 and 500 ng/ml for PD-0325901. Pharmacokinetic parameters were calculated in R using an in-house-developed validated script for non-compartmental pharmacokinetic analyses (version 3.6.0).[9]

[3] = system: patients with advanced cancers; design: method as in PMID 20215549; conditions: BID, continuous schedule; cited from earlier work
[4] = Dose-level 2: dacomitinib 15 mg QD + PD-0325901 3 mg BID, Cycle 1 Day 1, n = 6
[5] = human, plasma, oral, 6 mg, All 6 mg doses, Cycle 1 Day 1, n = 14
[6] = human, plasma, oral, 6 mg, All 6 mg doses, Cycle 2 Day 1 or last day of concomitant use, n = 6
[7] = human, plasma, oral, Dose-level 1: dacomitinib 30 mg QD + PD-0325901 2 mg BID, Cycle 1 Day 1, n = 6
[8] = human, plasma, oral, Dose-level 1: dacomitinib 30 mg QD + PD-0325901 2 mg BID, Cycle 2 Day 1, n = 6
[9] = human, plasma, oral, Dose-level 2: dacomitinib 15 mg QD + PD-0325901 3 mg BID, Cycle 2 Day 1, n = 5
[10] = human, plasma, oral, Dose-level 3: dacomitinib 15 mg QD + PD-0325901 4 mg BID, Cycle 1 Day 1, n = 2
[11] = human, plasma, oral, Dose-level 3: dacomitinib 15 mg QD + PD-0325901 4 mg BID, Cycle 2 Day 1, n = 2
[12] = human, plasma, oral, Dose-level 4: dacomitinib 15 mg QD + PD-0325901 5 mg BID, Cycle 1 Day 1, n = 3
[13] = human, plasma, oral, Dose-level 4: dacomitinib 15 mg QD + PD-0325901 5 mg BID, Cycle 2 Day 1, n = 4
[14] = human, plasma, oral, Dose-level 5: dacomitinib 15 mg QD + PD-0325901 6 mg BID, Cycle 1 Day 1, n = 8
[15] = human, plasma, oral, Dose-level 5: dacomitinib 15 mg QD + PD-0325901 6 mg BID, Cycle 2 Day 1, n = 5
[16] = human, plasma, oral, Dose-level 6: dacomitinib 30 mg (4/3) QD + PD-0325901 6 mg BID, Cycle 1 Day 1, n = 3
[17] = human, plasma, oral, Dose-level 6: dacomitinib 30 mg (4/3) QD + PD-0325901 6 mg BID, last day of concomitant use of both drugs, n = 1
[18] = human, plasma, oral, Dose-level 7: dacomitinib 30 mg (5/2) QD + PD-0325901 6 mg (5/2) BID, Cycle 1 Day 1, n = 3
[19] = human, plasma, oral, Dose-level 7: dacomitinib 30 mg (5/2) QD + PD-0325901 6 mg (5/2) BID, last day of concomitant use of both drugs, n = 2
[20] = human, plasma, oral, Dose-level 8: dacomitinib 30 mg (5/2) QD + PD-0325901 5 mg (5/2) BID, Cycle 1 Day 1, n = 4
[21] = human, plasma, oral, Dose-level 8: dacomitinib 30 mg (5/2) QD + PD-0325901 5 mg (5/2) BID, last day of concomitant use of both drugs, n=2
[22] = human, plasma, oral, Dose-level -1: dacomitinib 15 mg QD + PD-0325901 2 mg BID, Cycle 1 Day 1, n = 4
[23] = human, plasma, oral, Dose-level -1: dacomitinib 15 mg QD + PD-0325901 2 mg BID, Cycle 2 Day 1, n = 3
[24] = patients, combination treatment

O=C(NOC[C@H](O)CO)c1ccc(F)c(F)c1Nc1ccc(I)cc1F [PD-0325901]
recommended Phase 2 dose (RP2D) / established maximum dose level in the combination with continuous dacomitinib dosing [1]: 6 mg | tmax PD-0325901, mean ([2]; All 6 mg doses, Cycle 1 Day 1, n = 14): 1.5 h | tmax PD-0325901, mean ([2]; All 6 mg doses, Cycle 2 Day 1 or last day of concomitant use, n = 6): 2.2 h | tmax PD-0325901, mean ([2]; Dose-level 1: dacomitinib 30 mg QD + PD-0325901 2 mg BID, Cycle 1 Day 1, n = 6): 1.2 h | tmax PD-0325901, mean ([2]; Dose-level 1: dacomitinib 30 mg QD + PD-0325901 2 mg BID, Cycle 2 Day 1, n = 6): 1.5 h | AUC0-12h PD-0325901, mean (CV%) [2, 4]: 273 (15) ng*h/ml | tmax PD-0325901, mean [2, 4]: 1.2 h | tmax PD-0325901, mean ([2]; Dose-level 2: dacomitinib 15 mg QD + PD-0325901 3 mg BID, Cycle 2 Day 1, n = 5): 2.2 h | tmax PD-0325901, mean ([2]; Dose-level 4: dacomitinib 15 mg QD + PD-0325901 5 mg BID, Cycle 1 Day 1, n = 3): 1.4 h | tmax PD-0325901, mean ([2]; Dose-level 5: dacomitinib 15 mg QD + PD-0325901 6 mg BID, Cycle 1 Day 1, n = 8): 1.4 h | tmax PD-0325901, mean ([2]; Dose-level 5: dacomitinib 15 mg QD + PD-0325901 6 mg BID, Cycle 2 Day 1, n = 5): 1.2 h | tmax PD-0325901, mean ([2]; Dose-level 6: dacomitinib 30 mg (4/3) QD + PD-0325901 6 mg BID, Cycle 1 Day 1, n = 3): 1.3 h | tmax PD-0325901, mean ([2]; Dose-level 7: dacomitinib 30 mg (5/2) QD + PD-0325901 6 mg (5/2) BID, Cycle 1 Day 1, n = 3): 1.3 h | tmax PD-0325901, mean ([2]; Dose-level 8: dacomitinib 30 mg (5/2) QD + PD-0325901 5 mg (5/2) BID, Cycle 1 Day 1, n = 4): 1.5 h | tmax PD-0325901, mean ([2]; Dose-level -1: dacomitinib 15 mg QD + PD-0325901 2 mg BID, Cycle 1 Day 1, n = 4): 1.3 h | tmax PD-0325901, mean ([2]; Dose-level -1: dacomitinib 15 mg QD + PD-0325901 2 mg BID, Cycle 2 Day 1, n = 3): 1.1 h | plasma concentration versus target level (16.5 ng/ml) ([2]; PD-0325901 doses of 5 and 6 mg, during the entire dose interval): exceeded the target level | increase of exposure with dose ([2]; across dose levels): approximately dose-proportionally | AUC(0-t) [2, 5]: 706 ng·h/mL | Cmax [2, 5]: 227 ng/mL | AUC(0-t) [2, 6]: 954 ng·h/mL | Cmax [2, 6]: 217 ng/mL | AUC(0-t) [2, 7]: 188 ng·h/mL | Cmax [2, 7]: 68.7 ng/mL | AUC(0-t) [2, 8]: 210 ng·h/mL | Cmax [2, 8]: 58.3 ng/mL | Cmax ([2]; human, plasma, oral, Dose-level 2: dacomitinib 15 mg QD + PD-0325901 3 mg BID, Cycle 1 Day 1, n = 6): 85 ng/mL | AUC(0-t) [2, 9]: 279 ng·h/mL | Cmax [2, 9]: 73.8 ng/mL | AUC(0-t) [2, 10]: 452 ng·h/mL | Cmax [2, 10]: 106 ng/mL | AUC(0-t) [2, 11]: 376 ng·h/mL | Cmax [2, 11]: 125 ng/mL | AUC(0-t) [2, 12]: 552 ng·h/mL | Cmax [2, 12]: 179 ng/mL | AUC(0-t) [2, 13]: 638 ng·h/mL | Cmax [2, 13]: 229 ng/mL | AUC(0-t) [2, 14]: 822 ng·h/mL | Cmax [2, 14]: 262 ng/mL | AUC(0-t) [2, 15]: 855 ng·h/mL | Cmax [2, 15]: 242 ng/mL | AUC(0-t) [2, 16]: 635 ng·h/mL | Cmax [2, 16]: 192 ng/mL | AUC(0-t) [2, 17]: 1340 ng·h/mL | Cmax [2, 17]: 254 ng/mL | AUC(0-t) [2, 18]: 635 ng·h/mL | Cmax [2, 18]: 192 ng/mL | AUC(0-t) [2, 19]: 406 ng·h/mL | Cmax [2, 19]: 56 ng/mL | Tmax ([2]; human, plasma, oral, Dose-level 7: dacomitinib 30 mg (5/2) QD + PD-0325901 6 mg (5/2) BID, last day of concomitant use of both drugs, n = 2, read-out: tmax PD-0325901, mean): 4.5 h | AUC(0-t) [2, 20]: 463 ng·h/mL | Cmax [2, 20]: 134 ng/mL | AUC(0-t) [2, 21]: 667 ng·h/mL | Cmax [2, 21]: 155 ng/mL | AUC(0-t) [2, 22]: 160 ng·h/mL | Cmax [2, 22]: 43.7 ng/mL | AUC(0-t) [2, 23]: 145 ng·h/mL | Cmax [2, 23]: 47.7 ng/mL | half-life ([2]; human, plasma, oral, patients, combination treatment, read-out: half-life, range): 5 to 9.9 h | accumulation after multiple doses (AUC and Cmax) [2, 24]: minimal accumulation | half-life, mean [2, 24]: 7.7 h | formal single-agent RP2D [3]: 10 mg
